How the values were obtained:
Type in all cases: in vivo, human
celiac disease [1] = test: Elimination-provocation (gluten challenge) test: Gastrointestinal Symptom Rating Scale (GSRS); conditions: for GSRS (mean total score): rebamipide 100 mg three times a day
Description: To study the effect of rebamipide on the celiac disease, a gluten challenge test was employed. Adult patients admitted into the test were stabilized on a gluten-free diet (GFD) leading to disappearance of the disease symptoms for at least 12 months. All participants were previously diagnosed by a physician for the celiac disease using upper endoscopy and duodenal biopsy. The gluten-free diet adherence was confirmed by high villous height/crypt depth ratio (Vh/Cd>2-3) and decline in anti-tTG antibody levels (less than 10 U/mL) after the exclusion of gluten from the diet.
Patients were divided into two groups taking either rebamipide 100 mg three times a day or placebo just before each major meal. Both groups continued the gluten-free diet. The gluten challenge test was carried out three month (day 90) after the start of the treatment. Patients were given one slice of white bread comprising about 2.7 g of wheat gluten every day for the period of 6 weeks but otherwise maintained their usual gluten-free diet. Both groups continued receiving either rebamipide or placebo treatment.
CD symptoms were weekly evaluated by the Gastrointestinal Symptom Rating Scale (GSRS) questionnaire, an instrument that is widely used in research on celiac disease and other gastrointestinal disorders (Svedlund J, Sjodin I, Dotevall G. GSRS—a clinical rating scale for gastrointestinal symptoms in patients with irritable bowel syndrome and peptic ulcer disease. Dig Dis Sci 1988; 33:129-134). It consists of 15 questions that are grouped into five domains (diarrhea, abdominal pain, indigestion, constipation, and reflux), which are combined into a total score calculated as a mean of all 15 questions. The scoring is based on a Likert scale from 1 to 7 points, where 1 point indicates minimal gastrointestinal symptoms and 7 points the most severe symptoms.

intestinal permeability = test: Elimination-provocation (gluten challenge) test: urinary lactulose/mannitol (La/Ma) fractional excretion ratio; conditions: for La/Ma (urinary lactulose/mannitol fractional excretion ratio): rebamipide 100 mg three times a day
Description: To study the effect of rebamipide on the celiac disease, a gluten challenge test was employed. Adult patients admitted into the test were stabilized on a gluten-free diet (GFD) leading to disappearance of the disease symptoms for at least 12 months. All participants were previously diagnosed by a physician for the celiac disease using upper endoscopy and duodenal biopsy. The gluten-free diet adherence was confirmed by high villous height/crypt depth ratio (Vh/Cd>2-3) and decline in anti-tTG antibody levels (less than 10 U/mL) after the exclusion of gluten from the diet. Patients were divided into two groups taking either rebamipide 100 mg three times a day or placebo just before each major meal. Both groups continued the gluten-free diet. The gluten challenge test was carried out three month (day 90) after the start of the treatment. Patients were given one slice of white bread comprising about 2.7 g of wheat gluten every day for the period of 6 weeks but otherwise maintained their usual gluten-free diet. Both groups continued receiving either rebamipide or placebo treatment. The intestinal permeability was measured using the standard urinary lactulose/mannitol (La/Ma) fractional excretion ratio at the beginning of the lest, before and after 6-week challenge. The La/Ma test is based on a different absorption of non-metabolized sugars. In the healthy intestine, monosaccharides (e.g. mannitol) are passively absorbed through the intestinal mucosa, while larger disaccharide molecules (e.g. lactulose) are normally almost not absorbed. On the contrary, patients with the celiac disease have a consistent increase in the absorption of lactulose (via the paracellular route) due to increased permeability of the intestine and a reduction in the absorption of mannitol (via the transcellular route) due to a reduction in surface area as a result of villous atrophy, resulting in an increase in the La/Ma ratio.

celiac disease [2] = test: Elimination-provocation (gluten challenge) test: duodenal biopsy, villous height to crypt depth ratio; conditions: for Vh/Cd (villous height to crypt depth ratio): duodenal biopsy
Description: (§1) To study the effect of rebamipide on the celiac disease, a gluten challenge test was employed. Adult patients admitted into the test were stabilized on a gluten-free diet (GFD) leading to disappearance of the disease symptoms for at least 12 months. All participants were previously diagnosed by a physician for the celiac disease using upper endoscopy and duodenal biopsy. The gluten-free diet adherence was confirmed by high villous height/crypt depth ratio (Vh/Cd>2-3) and decline in anti-tTG antibody levels (less than 10 U/mL) after the exclusion of gluten from the diet. Patients were divided into two groups taking either rebamipide 100 mg three times a day or placebo just before each major meal. Both groups continued the gluten-free diet. The gluten challenge test was carried out three month (day 90) after the start of the treatment. Patients were given one slice of white bread comprising about 2.7 g of wheat gluten every day for the period of 6 weeks but otherwise maintained their usual gluten-free diet. Both groups continued receiving either rebamipide or placebo treatment. Duodenal biopsy was performed at the beginning (day 0) and at the end (day 132) of the study period. Villous height to crypt depth ratio (Vh/Cd) was determined by measuring the mean height/mean depth of adjacent villi/crypts by a pathologist. The ratio of <2 is regarded as indicative of villous atrophy and crypt hyperplasia.

anti-tTG IgA antibody = test: Elimination-provocation (gluten challenge) test: serum anti-tTG IgA antibody ELISA
Description: as §1, with “Serum mean anti-tTG IgA antibody levels were” for “Duodenal biopsy was performed at the beginning (day 0) and at the end (day 132) of the study period. Villous height to crypt depth ratio (Vh/Cd) was”, “an enzyme-linked immunosorbent assay (ELISA) and” for “measuring”, “difference at baseline” for “mean height/mean depth of adjacent villi/crypts by a pathologist. The ratio of <2 is regarded as indicative of villous atrophy”, “after 6-week challenge was compared.” for “crypt hyperplasia.”

[3] = day 132, after 6-week gluten challenge, rebamipide 100 mg three times a day

Question: `O=C(NC(Cc1cc(=O)[nH]c2ccccc12)C(=O)O)c1ccc(Cl)cc1` (stereo not drawn) [Rebamipide, 2-[(4-chlorobenzoyl)amino]-3-(2-oxo-1H-quinolin-4-yl)propanoic acid] was tested. Which “difference in mean GSRS scores, rebamipide lower than placebo” value (celiac disease [1]; at the end of the study (day 132)) did it give?
Answer: Its value is 0.6 units.

Question: What about the “GSRS (mean total score)” value (celiac disease [1]; day 0 (baseline), adult celiac patients on gluten-free diet) of the same compound?
Answer: The value was 2.0.

Question: And the “GSRS (mean total score)” value (celiac disease [1]; day 90, after three month pretreatment, before gluten challenge)?
Answer: Its value is 1.7.

Question: And the “GSRS (mean total score)” value (celiac disease [1]; day 132, after 6-week gluten challenge (about 2.7 g wheat gluten every day))?
Answer: Its value is 1.8.

Question: What about the “La/Ma ratio versus baseline” value (intestinal permeability; at the end of the gluten challenge) of the same compound?
Answer: The value was “remained near the baseline”.

Question: And the “La/Ma (urinary lactulose/mannitol fractional excretion ratio)” value (intestinal permeability; day 0 (baseline))?
Answer: Its value is 0.057.

Question: And the “La/Ma (urinary lactulose/mannitol fractional excretion ratio)” value (intestinal permeability; day 90, before gluten challenge)?
Answer: Its value is 0.038.

Question: What about the “La/Ma (urinary lactulose/mannitol fractional excretion ratio)” value (intestinal permeability; day 132, after 6-week gluten challenge) of the same compound?
Answer: The value was 0.048.

Question: And the “change from baseline to post treatment in villus height to crypt depth ratio” value (celiac disease [2]; after 6 weeks of daily gluten intake)?
Answer: The value was “didn't exhibit negative changes”.

Question: And the “Vh/Cd (villous height to crypt depth ratio)” value (celiac disease [2]; day 0 (baseline))?
Answer: Its value is 2.9.

Question: And the “Vh/Cd (villous height to crypt depth ratio)” value (celiac disease [2]; [3])?
Answer: Its value is 3.1.

Question: And the “mean anti-tTG IgA antibody titers” value (anti-tTG IgA antibody; after the gluten challenge)?
Answer: Its value is under 10 U/ml.

Question: And the “anti-tTG IgA (serum mean antibody level)” value (anti-tTG IgA antibody; day 0 (baseline))?
Answer: Its value is 3.9 U/ml.

Question: And the “anti-tTG IgA (serum mean antibody level)” value (anti-tTG IgA antibody; day 90, before gluten challenge, rebamipide 100 mg three times a day)?
Answer: The value was 4.3 U/ml.

Question: And the “anti-tTG IgA (serum mean antibody level)” value (anti-tTG IgA antibody; [3])?
Answer: Its value is 7.8 U/ml.

From patent US20220304996A1, “REBAMIPIDE FOR USE IN PROPHYLAXIS AND TREATMENT OF CELIAC DISEASE” (SQUARE POWER LTD., priority 2019, published 2022)
